# Assay results reported in patent US6437093B1, “Methods of treatment comprising administration of Substance P” (Milkhaus Laboratory, Inc., priority 2000, dated 2002).
# Ends that are not written are not given here.
# Experiments:
# Assay type in all cases: in vivo, human
# [1] = tested on: upper airway distress, persistent cough, RUDS (Reactive Upper Airway Dysfunction); test: Case report: persistent cough from RUDS triggered by volatile chemicals, sublingual Substance P; conditions: person with RUDS; sublingual drop 8×10−^5 mg, one drop per hour for three hours then four times daily
# Procedure: His disease appeared to be initiated by chronic exposure to floor stripper which caused RUDS (Reactive Upper Airway Dysfunction). […] Each drop contained 8×10−^5 mg synthetic Substance P (Sigma) in phosphate buffered saline.
# [2] = tested on: repetitive, almost tic-like, exaggerated cough; test: Case report: repetitive tic-like exaggerated cough, sublingual Substance P; conditions: child
# Procedure: Their disease appeared to be initiated by chronic exposure to floor stripper which caused RUDS (Reactive Upper Airway Dysfunction). […] Each drop contained 8×10−^5 mg synthetic Substance P (Sigma) in phosphate buffered saline. According to this example, a child presented with a repetitive, almost tic-like, exaggerated cough that was disruptive to their classmates and teacher. Several physicians were consulted without success and with no apparent cause found for the cough.
# [3] = tested on: RUDS manifested as severe hoarseness or aphonia; test: Case report: RUDS with severe hoarseness or aphonia, sublingual Substance P; conditions: person, one drop four times daily or more if needed
# Procedure: Their disease appeared to be initiated by chronic exposure to floor stripper which caused RUDS (Reactive Upper Airway Dysfunction). […] Each drop contained 8×10−^5 mg synthetic Substance P (Sigma) in phosphate buffered saline. According to this example, a person presented RUDS that manifested as severe hoarseness or even aphonia if exposed to volatile chemicals, and especially to fragrances. They had suffered for several years after being exposed to fragrances from several co-workers using multiple perfumes. Their airway problem was reduced only by complete avoidance of any exposure to volatile chemicals which dramatically changing their lifestyle. […] Their RUDS continues to be controlled by taking one drop of Substance P four times daily, or more frequently if needed.
# [4] = tested on: numbness, tingling and severe pain in feet and legs; test: Case report: numbness, tingling and severe pain in feet, legs and hands, sublingual Substance P; conditions: person; sublingual administration as in Example 1
# Procedure: Their disease appeared to be initiated by chronic exposure to floor stripper which caused RUDS (Reactive Upper Airway Dysfunction). […] Each drop contained 8×10−^5 mg synthetic Substance P (Sigma) in phosphate buffered saline. According to this example, a person presented with a history of numbness, tingling and severe pain in feet and legs eight years earlier. During the year immediately preceding their first office visit, the discomfort had spread to their hands. […] No cause of their discomfort could be determined, and the only relief they obtained was from narcotic analgesics.
# [5] = tested on: severe sciatic-like pain of the hip; test: Case report: severe sciatic-like hip pain in a diabetic subject, sublingual Substance P; conditions: person with diabetes; sublingual administration as in Example 1
# Procedure: Their disease appeared to be initiated by chronic exposure to floor stripper which caused RUDS (Reactive Upper Airway Dysfunction). […] Each drop contained 8×10−^5 mg synthetic Substance P (Sigma) in phosphate buffered saline. According to this example, a person presented with severe sciatic-like pain of the hip of long duration. The subject also presented with a diagnosis of diabetes. […] They continue well for over two years.
# chronic sciatic pain = test: Case report: chronic disabling sciatic pain, sublingual Substance P; conditions: person
# Procedure: Their disease appeared to be initiated by chronic exposure to floor stripper which caused RUDS (Reactive Upper Airway Dysfunction). […] Each drop contained 8×10−^5 mg synthetic Substance P (Sigma) in phosphate buffered saline. According to this example, a person presented with a diagnosis of chronic sciatic pain that was disabling and of several years duration. Analgesics helped reduce the pain. The subject was treated by sublingual administration of Substance P according to the method of Example 1.
# [6] = tested on: arthritis-like pain and inflammation of the knuckles; test: Case report: arthritis-like pain and inflammation of the knuckles, sublingual Substance P; conditions: person; after three days of sublingual drop therapy, continued after two months
# Procedure: Their disease appeared to be initiated by chronic exposure to floor stripper which caused RUDS (Reactive Upper Airway Dysfunction). […] Each drop contained 8×10−^5 mg synthetic Substance P (Sigma) in phosphate buffered saline. According to this example, a person with arthritis-like pain and inflammation of the knuckles but who tested negative for rheumatoid factor. […] The subject was treated by sublingual administration of Substance P according to the method. of Example 1.
substance,measurement,setting,value
"Substance P (RPKPQQFFGLM; not fully specified (C-terminus); UniProt P20366 58-68, looked up) [synthetic Substance P (Sigma) in phosphate buffered saline; a tachykinin naturally occurring in the body]",effect on persistent cough,[1],stopped almost immediately
same,long-term control of cough disorder,[2]; continued sublingual treatment,continued to control this disorder after more than a year
same,effect on cough,[2]; sublingual administration as in Example 1,stopped the cough within minutes
same,effect on RUDS (hoarseness/aphonia),[3],significant improvement
same,need for narcotic analgesics,[4],able to discontinue narcotics
same,pain relief,[4],almost immediate pain relief
same,effect on sciatic-like hip pain,[5],reduced the pain dramatically
same,long-term control of sciatic pain,chronic sciatic pain; daily doses over several months,continued control of pain
same,effect on chronic sciatic pain after first drop,chronic sciatic pain; first sublingual drop,instantly and dramatically “turned off” the pain
same,effect on arthritis-like pain and inflammation,[6],“remarkable” improvement
